Test results as given in patent publication US20180142206A1, “REVERSION OF PRIMED PLURIPOTENT STEM CELLS TO NAIVE PLURIPOTENT STEM CELLS” (The J. David Gladstone Institutes, A Testamentary Trust …, priority 2015, published 2018).

How the values were obtained:
Xi-GFP mEpiSCs [1] = test: Flow cytometric analysis of GFP and CD31 expression in Xi-GFP mEpiSCs; format: cell-based, mouse; details: for LIF induced Xi-reactivation (GFP/CD31 double positive cells): LIF-containing mEpiSC medium with or without Activin A and bFGF; for % of GFP/CD31 double positive cells compared with LIF alone: added to N2B27 medium containing LIF
Method: To more quantitatively assess the proportion of GFP positive cells under these three culture conditions, Fluorescence Activated Cell Sorting (FACS) was employed. For flow cytometric analyses, Xi-GFP mEpiSCs were dissociated into single cell suspensions with Accutase. The single cells were stained with a CD31 (PECAM) antibody (Clone MEC13.3/BD Bioscience (Franklin Lakes, N.J., USA)) conjugated with allophycocyanin, or APC. The stained cells were analyzed using MACSQuant VYB (Miltenyi Biotec, San Diego, Calif., USA) and FlowJo (FlowJo LLC, Ashland, Oreg., USA) software. […] In the LIF+2i and SNL-CM, the GFP^+ populations were also CD31^+, a marker for mouse naïve pluripotent stem cells (FIG. 1, panel C).
Xi-GFP mEpiSCs were dissociated with Accutase into single cell suspensions, and the single cells were seeded on a fibronectin-coated plate in the Activin A and bFGF-containing medium with two different cell densities (20,000 cells or 3,000 cells/well of a 6-well plate) one day before starting conversion experiments. Twenty-four hours after the seeding, fresh primed media was replenished as a negative control or changed to naïve medium. Assay medium was changed every 24 hours and GFP fluorescent was checked daily by microscopic inspection for eight (with 20,000 starting cells) to 13 days (with 3,000 starting cells).
The naïve media contained 1,000 units LIF (Millipore), 10 ng/ml BMP4 (R&D systems), 64 μg/ml L-ascorbic acid 2-phosphate (Sigma), 10 nM to 100 nM LPA (Avanti Polar Lipids (Alabaster, Ala., USA)), and/or 100 nM OMPT (Avanti Polar Lipids (Alabaster, Ala., USA)) in N2B27 basal medium purchased from StemCells Inc (Palo Alto, Calif., USA) or prepared in house for use in FIGS. 4 and 5. The in house N2B27 medium consists of 500 ml DMEM/F12+GlutaMax (Life Technologies (Carlsbad, Calif., USA), 500 ml Neurobasal medium (Life Technologies (Carlsbad, Calif., USA)), 5 ml N2 supplement (Life Technologies (Carlsbad, Calif., USA)), 10 ml B27 supplement (Life Technologies (Carlsbad, Calif., USA)), 666 μl 7.5% BSA Fraction V (Life Technologies (Carlsbad, Calif., USA)) and 5 ml GlutaMax (Life Technologies (Carlsbad, Calif., USA)/1 liter. At the end of the conversion experiments, the conversion efficiencies were evaluated by counting GFP^+ cell clusters or by flow cytometer.

hiPSCs [2] = test: Reversion of primed hiPSCs containing episomal reprogramming factors in reversion media; format: cell-based, human; details: for conversion to cells with features of naïve pluripotency (dome shaped colonies): 1 μM OMPT, 10 ng/mL LIF in StemFit, no bFGF, TGF-β, laminin-511
Excerpt: These naive-like cells formed three-dimensional dome shaped colonies characteristic of naïve pluripotent stem cells and very different from the colony morphology of primed hiPSCs. […] In addition, they provide the basis for further investigation of whether modulating the LPA-LPAR-RHO signaling axis can be used to generate and maintain human naïve pluripotent stem cells.

hiPSCs [3] = test: Reversion of primed integration-free hiPSCs in lipid containing reversion media; format: cell-based, human
Method: Human iPSCs were generated with episomal vectors expressing Oct4, Sox2, Klf4, myc, Lin28 and shRNA against […] using the methods described by Okita et al. (2011) Nature Methods 8(5):409-412. The hiPSCs were grown in primed media containing bFGF and TGF-β in StemFit basal medium (or mTeSR orE8). Primed hiPSCs were then switched to reversion media and cultured on laminin-511 under hypoxic conditions. The reversion media contained 10 ng/mL LIF, 10 ng/mL Activin A, 100 ng/mL bFGF, 1 μM PD0325901 MEK inhibitor, 1 μM CHIR99021 GSK3β inhibitor, and 2 mM N-acetyl cysteine in StemFit basal medium with various concentrations of lipids (2 μM OMPT, 1 μM OMPT, 1 μM OMPT+20 nM LPA, or no lipids). After 5 to 7 days, three-dimensional dome shaped colonies, characteristic of naïve pluripotent stem cells, were observed. […] The naïve cells also expressed NANOG, KLF4, KLF17 and TFCP2L1, markers for naïve human pluripotent stem cells (FIG. 9).

[4] = tested on: primed pluripotent stem cells; test: Cell morphology/toxicity of primed PSCs grown in various concentrations of LPA or OMPT
Method: To optimize the concentration of LPA and OMPT, primed pluripotent stem cells were grown in various concentrations of LPA or OMPT.

Xi-GFP mEpiSCs [5] = test: Xi-reactivation in Xi-GFP mEpiSC reporter line, GFP positive clusters by fluorescence microscopy; format: cell-based, mouse; details: exogenous addition to SNL-CM and non-CM+LIF
Method: During somatic cell reprogramming the human Xi is reliably reactivated in hiPSCs reprogrammed on SNL feeder cells. […] It was first determined whether the culture conditions that promoted reactivation of the Xi during reprogramming also promoted Xi-reactivation of mouse EpiSCs, which are XaXi. Results of culturing an X-GFP mEpiSC reporter line, in which the green fluorescent protein (GFP) gene is located on the X-chromosome in different media were assayed by fluorescence microscopy. Gillich et al., (2012) Cell Stem Cell 10(4):[…], Bao et al., (2009) Nature 461(7268):1292-1295. Xi-GFP mEpiSCs were kindly provided by Drs. Azim Surani and Siqin Bao and were routinely maintained on a fibronectin (Sigma, St. Louis, Mo., USA)-coated plate (feeder free condition) in N2B27 basal medium (Ndiff 227 medium from StemCells Inc (Palo Alto, Calif., USA) and later from Clontech (Mountain View, Calif., USA) supplemented with 20 ng/ml Activin A (R&D systems (Minneapolis, Minn., USA)) and 12 ng/ml bFGF (Millipore (Billerica, Mass., USA)). Cells were passaged every two to three days at a 1:20 dilution from a previous culture after detached/scraped and dissociated with Accutase (Millipore (Billerica, Mass., USA)).
Cells remain GFP negative when cultured under feeder-free mEpiSC conditions, N2B27 medium containing Activin A and bFGF on fibronectin coated plates (FIG. 1, panels A and B). […]

In the case of bFGF: basic fibroblast growth factor, the “LIF induced Xi-reactivation (GFP/CD31 double positive cells)” value (Xi-GFP mEpiSCs [1]) is reported as “negative effects”.

In the case of `CCCCCCCC/C=C\CCCCCCCC(=O)OC[C@H](COP(O)(O)=S)OC` [OMPT, 1-oleoyl-2-methyl-sn-glycero-3-phosphothioate], the “conversion to cells with features of naïve pluripotency (dome shaped colonies)” value (hiPSCs [2]) is reported as “cells with features of naïve pluripotency were observed”, the “time for which three-dimensional dome shaped colonies were maintained” value (hiPSCs [3]; 2 μM or 1 μM OMPT, or 1 μM OMPT+20 nM LPA, laminin-511, hypoxic, approximately five passages) is reported as “more than one month” and the “conversion of hiPSCs to cells with characteristics of naïve PSCs (colony morphology)” value (hiPSCs [3]; compared to control media containing no lipids, FIG. 7) is reported as “converts the hiPSCs to cells with characteristics of naïve PSCs”.

With `O=C1O[C@H]([C@@H](O)CO)C(O)=C1O` [ascorbic acid] the “% of GFP/CD31 double positive cells compared with LIF alone” value (Xi-GFP mEpiSCs [1]) was “increased”.

For `NC(=O)c1ccc(-c2nc(-c3ccc4c(c3)OCO4)c(-c3ccccn3)[nH]2)cc1` [SB431542], the “% of GFP/CD31 double positive cells” value (Xi-GFP mEpiSCs [1]; added to MEF-CM containing LIF) was “enhances induction of the double positive cells”.

For lysophosphatidic acid [LPA], the “induction of GFP^+ cells” value (Xi-GFP mEpiSCs [1]; N2B27, without LIF) was “induced GFP^+ cells, albeit less efficiently than with LIF”, the “conversion to cells with features of naïve pluripotency (dome shaped colonies)” value (hiPSCs [2]) was “converted to cells with characteristics of naïve PSCs” and the “NANOG expression of naive-like cells” value (hiPSCs [2]; antibody staining, FIG. 6) was “continue to express NANOG”. The “toxicity to primed pluripotent stem cells” value ([4]; 50 nM and 100 nM) was “toxic” and the “concentration at which cell toxicities were observed” value ([4]; FIG. 8) was at least 10 nM.

With `Cc1noc(-c2ccc(CSCCC(=O)O)cc2)c1NC(=O)OC(C)c1ccccc1Cl` (stereo not shown) [Ki16425] the “% of GFP^+ cells” value (Xi-GFP mEpiSCs [1]; added to medium containing LIF+LPA or LIF alone) was “significantly reduces”.

B1: BMP4: bone morphogenetic protein (protein, UniProt P12644 293-408, looked up)
Bone morphogenetic protein 4: SPKHHSQRARKKNKNCRRHSLYVDFSDVGWNDWIVAPPGYQAFYCHGDCPFPLADHLNSTNHAIVQTLVNSVNSSIPKACCVPTELSAISMLYLDEYDKVVLKNYQEMVVEGCGCR
B1 was tested, and the “% of GFP/CD31 double positive cells compared with LIF alone” value (Xi-GFP mEpiSCs [1]) was “dramatically increased” and the “GFP/CD31 double positive cells” value (Xi-GFP mEpiSCs [1]; alone in N2B27 basal medium (without bFGF or Activin A), data not shown) was “did not induce GFP/CD31 double positive cells”.

B2: Activin A: cytokine required for maintaining primed pluripotency in mEpiSCs (protein, UniProt Q04998 309-424, looked up)
Inhibin beta A chain: GLECDGKVNICCKKQFFVSFKDIGWNDWIIAPSGYHANYCEGECPSHIAGTSGSSLSFHSTVINHYRMRGHSPFANLKSCCVPTKLRPMSMLYYDDGQNIIKKDIQNMIVEECGCS
modifications: Inhibin beta A chain
B2 was tested, and the “numbers of GFP+ clusters” value (Xi-GFP mEpiSCs [5]) was “significantly reduced” and the “LIF induced Xi-reactivation (GFP/CD31 double positive cells)” value (Xi-GFP mEpiSCs [1]) was “negative effects”.
